Experimental data: patent US20190201431A1, “EX VIVO METHODS OF INDUCING IDO EXPRESSION IN ANTIGEN PRESENTING CELLS USING A COMPOUND SELECTED FROM THE GROUP CONSISTING OF AZACYTIDINE, AND DECITABINE” (IDOGEN AB, priority 2016, published 2019)

Key:
[1] = test system: IDO1 gene expression in THP-1 cells; test: Induction of IDO1 in THP-1 cells (RT-qPCR); format: cell-based, human; conditions: 96 hours; for concentration at which the highest level of IDO induction was observed: tested 0.1-10 micromolar; for increase of IDO1 gene expression (maximum over tested concentrations): compound alone
Experimental: THP-1 cells were harvested from appropriate number of T75 flasks. Cells were counted in a Bürker chamber, stained with 0.4% Trypan Blue. The appropriate number of cells for each experiment were transferred to a new tube and centrifuged at 1200 rpm, 5 min at room temperature (RT). The supernatant was discarded and fresh RPMI with 5% FBS were added to get a cell concentration of 2×10^5 cells/mL. The compound was added to the five separate wells in 6-well plates such that five different final concentrations were obtained after adding the cells. A control was added to one well in the 6-well plate to which cells were added. 1×10^6 cells per well were seeded out to achieve a total volume of 5 mL per well. The cells were incubated at 37° C. in 5% CO2 for 96 hours. After 96 hours the assay was stopped and the cells were lysed for the isolation of RNA.
Total RNA was extracted from THP-1 cells using the RNA RNeasy Mini extraction kit (Qiagen), according to the manufacturer's instructions. A SuperScript® VILO™ RT-kit (Thermo Fisher) was used to reverse transcribe 1 μg of total RNA to cDNA and qPCR was performed. The primers used for amplification of the human IDO1 gene were 5′-[…]-3′ (forward; SEQ ID No. 1) and 5′-[…]-3′ (reverse; SEQ ID No. 2). The primers used for amplification of the endogenous reference gene for human HPRT1 were 5′-[…]-3′ (forward; SEQ ID No. 3) and 5′-[…]-3′ (reverse; SEQ ID No. 4). In brief, RT-qPCR was performed in 20 μl reaction, consisting 10 μl PowerUp SYBR Green Master Mix, 0.5 μM of each primer, 4 μl diluted cDNA for amplification of IDO1 and 1.5 μl diluted cDNA for amplification of HPRT1. An iCycler iQ real-time detection system (Stratagene, Mx3000P, La Jolla, Calif., USA) with the following thermal profile: UDG incubation at 50° C. for 2 min, then denaturation at 95° C. for 5 min, followed by 45 cycles at 94° C. for 15 s, 58° C. for 30 s, and 60° C. for 30 s, was used to perform thermocycling and real-time detection of PCR products. After amplification a melting curve analysis was performed. The RT-qPCR experiments were always run in triplicate. IDO1 was normalised to the geometric means of two HPRT1 reference gene, using the ΔCt method. Within-group comparisons were normalized to one control sample, using the ΔΔCt method.

[2] = test system: collagen-induced arthritis in DBA/1 mice; test: Treatment of collagen-induced arthritis in vivo; conditions: 1 mg/kg for 4 days from day of arthritis onset, scored 10 days, vs vehicle (FIG. 3, P<0.05)
Experimental: DBA/1 mice were immunized with bovine type II collagen emulsified in complete Freund's adjuvant. The mice were treated with decitabine (1 mg/kg) for 4 days, starting on the day of arthritis onset. Treatment was then stopped. Negative controls received vehicle alone. Clinical scores were monitored for 10 days following onset of arthritis. A clinical scoring system was used as follows. Arthritis severity was scored by an experienced non-blinded investigator as follows: 0=normal, 1=slight swelling and/or erythema, 2=pronounced swelling, 3=ankylosis. All four limbs were scored, giving a maximum possible score of 12 per animal.

naïve CD4+ CD25− T cells = test: Conversion of CD4+CD25− T cells into CD4+FoxP3+ Tregs in vitro; format: cell-based
Experimental: To assess the effect of decitabine on the generation of Tregs, naïve CD4+ CD25− T cells were cultured with mitomycin C treated APCs plus IL-2, TGFβ and anti-CD3 in the presence or absence of decitabine and numbers of CD4^+FoxP3^+ Tregs were determined by FACS after 72 h. The RNA was isolated from cell lysate, and reverse transcribed to cDNA for RT-qPCR analysis using Taqman primer probes. Expression of genes encoding Foxp3 was normalized to HPRT expression and was calibrated relative to vehicle group.

Structure (SMILES)	dose dependence of IDO1 gene expression ([1]; 0.1-10 micromolar)	concentration at which the highest level of IDO induction was observed [1] [µM]	increase of IDO1 gene expression (maximum over tested concentrations) ([1]; 0.1-10 micromolar)	IDO1 expression (fold change) ([1]; decitabine 0.1 micromolar, vs DMSO control)	IDO1 expression (fold change) ([1]; decitabine 0.3 micromolar, vs DMSO control)	IDO1 expression (fold change) ([1]; decitabine 1 micromolar, vs DMSO control)	IDO1 expression (fold change) ([1]; decitabine 3 micromolar, vs DMSO control)	IDO1 expression (fold change) ([1]; decitabine 10 micromolar, vs DMSO control)	disease severity (mean clinical score) [2]	relative expression of the Foxp3 gene (RT-qPCR) (naïve CD4+ CD25− T cells; normalized to HPRT, relative to vehicle group, vs control "nil" (FIG. 4C))	frequencies of CD4+FoxP3+ Tregs (FACS) (naïve CD4+ CD25− T cells; with mitomycin C treated APCs, IL-2, TGFβ, anti-CD3, after 72 h, vs control "nil" (FIG. 4B))	IDO1 expression (fold change) ([1]; azacytidine 0.1 micromolar, vs H2O:HAc control)	IDO1 expression (fold change) ([1]; azacytidine 0.3 micromolar, vs H2O:HAc control)	IDO1 expression (fold change) ([1]; azacytidine 1 micromolar, vs H2O:HAc control)	IDO1 expression (fold change) ([1]; azacytidine 3 micromolar, vs H2O:HAc control)	IDO1 expression (fold change) ([1]; azacytidine 10 micromolar, vs H2O:HAc control)
Nc1ncn([C@H]2C[C@H](O)[C@@H](CO)O2)c(=O)n1 [decitabine, 4-Amino-1-(2-deoxy-β-D-ribofuranosyl)-1,3,5-triazin-2(1H)-one]	a dose-related response was observed	10	up to 101 fold	6	16.4	40	87	101	successful in reducing disease severity	increased in a dose-dependent manner	increased in a dose-dependent manner	–	–	–	–	–
Nc1ncn([C@@H]2O[C@H](CO)[C@@H](O)[C@H]2O)c(=O)n1 [azacytidine, 4-Amino-1-(β-D-ribofuranosyl)-1,3,5-triazin-2(1H)-one]	–	1	up to 23 fold	–	–	–	–	–	–	–	–	0.5	1.2	23	6	8.6
